Laboratory results reported in article PMC11358443, “Polymodal K^+ channel modulation contributes to dual analgesic and anti-inflammatory actions of traditional botanical medicines” (Communications Biology, 2024).

Experiments:
Assay type in all cases: cell-based
Kv1.3 Mutant 3 = Kv1.3 Mutant 3 (Homo sapiens, UniProt P22001, H451V/V453T); assay: TEVC electrophysiology, oocytes expressing Kv1.3 Mutant 3 (Kv1.2 selectivity filter-S6 linker residues)
Excerpt: (§1) To test whether the predicted different binding poses of tannic acid to Kv1.2 and Kv1.3 could explain the contrasting functional effects on these two channels, we made three mutant forms of Kv1.3, introducing Kv1.2 residues into the Kv1.3 turret loop (Mutant 1), pore helix (Mutant 2) and selectivity filter-S6 linker (Mutant 3) (Fig. 9A, B). Mutant 2 was nonfunctional (Fig. 9C); the single residue in this mutant was inaccessible to tannic acid as it was deep inside the pore and was not predicted therefore to interact with tannic acid (Fig. 8).
(§2) We generated human potassium channel cRNA transcripts with the mMessage mMachine kit (Thermo Fisher Scientific, Waltham, MA, USA) according to manufacturer’s instructions, after vector linearization, from cDNA sub-cloned into expression vectors (pTLNx, pXOOM and pMAX). We injected Xenopus laevis oocytes (Xenoocyte, Dexter, MI, USA) with the channel cRNAs (0.5–10 ng) and incubated the oocytes at 16 °C for 1–4 days prior to electrophysiological recording.
(§3) We performed TEVC at 20–23 °C with an OC-725C amplifier (Warner Instruments, Hamden, CT, USA) and pClamp10 software. Chemicals for recording and oocyte storage solutions were from Sigma-Aldrich (St. Louis, MO). Bath solution contained (in mM): 96 NaCl, 4 KCl, 1 MgCl2, 1 CaCl2, 10 HEPES (pH 7.6). Pipettes were 1–2 MΩ resistance when filled with 3 M KCl. We recorded currents in response to voltage pulses between −120 mV or −80 mV and +40 mV at 10 mV intervals from a holding potential of −80 mV, to yield current–voltage relationships and examine activation kinetics. We recorded and analyzed data using Clampfit (Molecular Devices, Sunnyvale, CA, USA) and Graphpad Prism software (GraphPad, San Diego, CA, USA), stating values as mean ± SEM. We calculated the voltage dependence of activation (V0.5) by measuring tail currents at a voltage pulse of −30 mV (Kv7) or −50 mV (Kv1), then fitted the tail current/voltage relationship with a single Boltzmann function:1 g=(A1−A2)/{1+exp[V1/2−V/Vs]}y+A2 where g is the normalized tail conductance, A1 is the initial value at −∞, A2 is the final value at +∞, V1/2 is the half-maximal voltage of activation and Vs the slope factor. We fitted activation and deactivation kinetics with single exponential functions.
(§4) For wild-type and mutant Kv1.3 channels we calculated conductance–voltage curves from current–voltage relationships recorded in response to voltage pulses between −80 mV to +40 mV in 10 mV intervals from a holding potential of −80 mV. The conductance was calculated by subtracting the driving force (EK):2 Ek=xlnK^+i/K^+o

Kv1.3 Mutant 1 = Kv1.3 Mutant 1 (Homo sapiens, UniProt P22001, D423E/G427Q/P424R/S429P/T425E); assay: TEVC electrophysiology, oocytes expressing Kv1.3 Mutant 1 (Kv1.2 turret loop residues)
Sequence of Kv1.3 Mutant 1 (P22001 whole entry D423E/P424R/T425E/G427Q/S429P): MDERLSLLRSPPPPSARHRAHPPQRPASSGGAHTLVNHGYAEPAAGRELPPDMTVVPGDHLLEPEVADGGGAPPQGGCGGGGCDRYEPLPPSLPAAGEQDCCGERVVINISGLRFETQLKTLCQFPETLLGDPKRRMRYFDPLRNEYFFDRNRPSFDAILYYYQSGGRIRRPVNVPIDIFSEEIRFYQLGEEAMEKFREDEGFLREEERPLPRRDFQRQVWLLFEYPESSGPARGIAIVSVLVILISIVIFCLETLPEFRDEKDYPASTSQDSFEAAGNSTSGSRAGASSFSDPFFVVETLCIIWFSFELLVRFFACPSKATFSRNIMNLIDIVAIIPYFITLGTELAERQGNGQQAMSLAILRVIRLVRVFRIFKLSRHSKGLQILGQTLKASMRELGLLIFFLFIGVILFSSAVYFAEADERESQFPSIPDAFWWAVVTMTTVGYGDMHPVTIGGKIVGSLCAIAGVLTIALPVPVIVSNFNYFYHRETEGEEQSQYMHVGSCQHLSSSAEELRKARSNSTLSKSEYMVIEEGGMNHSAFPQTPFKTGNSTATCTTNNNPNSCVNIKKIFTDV
Excerpt: as §1, §2, §3, §4

TREK-1 (KCNK2) = biological target: T1, TREK-1 (KCNK2) (Homo sapiens, UniProt O95069); assay: TEVC electrophysiology, Xenopus oocytes expressing TREK-1
T1 sequence (O95069 1-426): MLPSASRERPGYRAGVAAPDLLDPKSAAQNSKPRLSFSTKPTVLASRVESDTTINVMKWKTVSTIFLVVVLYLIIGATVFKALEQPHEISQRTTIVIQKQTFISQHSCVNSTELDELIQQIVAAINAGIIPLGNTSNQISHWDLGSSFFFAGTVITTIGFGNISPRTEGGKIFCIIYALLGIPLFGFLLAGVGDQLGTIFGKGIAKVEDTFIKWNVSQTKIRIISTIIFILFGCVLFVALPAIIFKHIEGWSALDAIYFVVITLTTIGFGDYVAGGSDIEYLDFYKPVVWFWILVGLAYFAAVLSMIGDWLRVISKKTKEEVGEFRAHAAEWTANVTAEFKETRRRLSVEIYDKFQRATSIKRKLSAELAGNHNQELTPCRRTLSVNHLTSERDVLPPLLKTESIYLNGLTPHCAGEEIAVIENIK
Experimental: as §2, §3

Sequence of Kv1.3 Mutant 3 (P22001 whole entry H451V/V453T): as the sequence (P22001 whole entry D423E/P424R/T425E/G427Q/S429P) above, with E423D, R424P, E425T, Q427G, P429S, H451V, V453T counted along it

## tannic acid
Kv1.3 Mutant 3; 0.1 µM tannic acid, control 2.50 ± 0.70
  Slope: 4.01 ± 0.35 mV
Kv1.3 Mutant 3; 0.1 µM tannic acid, control 3.39 ± 0.48
  Current at 0 (mV): 4.20 ± 0.53
Kv1.3 Mutant 3; 0.1 µM tannic acid, control -31.00 ± 0.53
  V0.5 Normalized tail current: -30.20 ± 0.78 mV
Kv1.3 Mutant 3; 1 µM tannic acid
  Current at 0 (mV): 4.44 ± 0.64
  Slope: 3.67 ± 0.41 mV
  V0.5 Normalized tail current: -30.51 ± 0.97 mV
Kv1.3 Mutant 3; 3 µM tannic acid
  Current at 0 (mV): 4.25 ± 0.64
  Slope: 4.85 ± 0.24 mV
  V0.5 Normalized tail current: -30.85 ± 1.34 mV
Kv1.3 Mutant 3; 10 µM tannic acid
  Current at 0 (mV): 2.28 ± 0.38
  Slope: 6.40 ± 0.62 mV
  V0.5 Normalized tail current: -29.05 ± 1.94 mV
Kv1.3 Mutant 3; 30 µM tannic acid
  Current at 0 (mV): 0.88 ± 0.13
  Slope: 14.11 ± 1.75 mV
  V0.5 Normalized tail current: -16.81 ± 5.40 mV
Kv1.3 Mutant 3; 100 µM tannic acid
  Current at 0 (mV): 0.50 ± 0.07
Kv1.3 Mutant 3; inhibition dose response
  change of tannic acid IC50 versus wild-type Kv1.3: did not alter
Kv1.3 Mutant 1; 0.1 µM tannic acid, control 3.97 ± 0.40
  Slope: 5.16 ± 0.56 mV
Kv1.3 Mutant 1; 0.1 µM tannic acid, control 4.66 ± 1.27
  Current at 0 (mV): 5.24 ± 0.91
Kv1.3 Mutant 1; 0.1 µM tannic acid, control -14.75 ± 3.06
  V0.5 Normalized tail current: -20.05 ± 2.13 mV
Kv1.3 Mutant 1; 1 µM tannic acid
  Current at 0 (mV): 5.37 ± 0.63
  Slope: 4.97 ± 0.53 mV
  V0.5 Normalized tail current: -24.05 ± 2.18 mV
Kv1.3 Mutant 1; 3 µM tannic acid
  Current at 0 (mV): 4.93 ± 0.57
  Slope: 5.05 ± 0.28 mV
  V0.5 Normalized tail current: -27.01 ± 1.83 mV
Kv1.3 Mutant 1; 10 µM tannic acid
  Current at 0 (mV): 4.01 ± 0.41
  Slope: 5.33 ± 0.20 mV
  V0.5 Normalized tail current: -27.63 ± 1.98 mV
Kv1.3 Mutant 1; 30 µM tannic acid
  Current at 0 (mV): 2.18 ± 0.24
  Slope: 5.94 ± 0.30 mV
  V0.5 Normalized tail current: -24.82 ± 2.70 mV
Kv1.3 Mutant 1; 100 µM tannic acid
  Current at 0 (mV): 1.15 ± 0.14
  Slope: 6.41 ± 0.42 mV
  V0.5 Normalized tail current: -19.79 ± 4.83 mV
Kv1.3 Mutant 1; inhibition dose response
  reduction of tannic acid sensitivity versus wild-type Kv1.3: threefold
TREK-1 (KCNK2); 10 µM tannic acid, control 0.23 ± 0.03
  Current at 0 (mV): 0.44 ± 0.08
TREK-1 (KCNK2); 50 µM tannic acid
  Current at 0 (mV): 0.89 ± 0.11
TREK-1 (KCNK2); 100 µM tannic acid
  Current at 0 (mV): 1.37 ± 0.14
TREK-1 (KCNK2); 250 µM tannic acid
  Current at 0 (mV): 1.86 ± 0.19
TREK-1 (KCNK2); 500 µM tannic acid
  Current at 0 (mV): 2.22 ± 0.24
TREK-1 (KCNK2); at 500 µM, 0 mV
  increase in KCNK2 current: > 10 fold
TREK-1 (KCNK2); current fold increase at 0 mV, read-out: EC50 for KCNK2 (TREK-1) activation
  EC50: 143 ± 4 µM
